1 compound from patent US20060084682A1, “Thrombopoietin mimetics” (priority 2002, published 2006) can be followed below.

SMILES strings stand for the structures.

The target in this assay is T1, human Tpo-R (Homo sapiens, UniProt P40238).
T1 construct: expressed in transfected cells; host or cells: murine BaF3 cell line
T1 sequence (P40238 26-635): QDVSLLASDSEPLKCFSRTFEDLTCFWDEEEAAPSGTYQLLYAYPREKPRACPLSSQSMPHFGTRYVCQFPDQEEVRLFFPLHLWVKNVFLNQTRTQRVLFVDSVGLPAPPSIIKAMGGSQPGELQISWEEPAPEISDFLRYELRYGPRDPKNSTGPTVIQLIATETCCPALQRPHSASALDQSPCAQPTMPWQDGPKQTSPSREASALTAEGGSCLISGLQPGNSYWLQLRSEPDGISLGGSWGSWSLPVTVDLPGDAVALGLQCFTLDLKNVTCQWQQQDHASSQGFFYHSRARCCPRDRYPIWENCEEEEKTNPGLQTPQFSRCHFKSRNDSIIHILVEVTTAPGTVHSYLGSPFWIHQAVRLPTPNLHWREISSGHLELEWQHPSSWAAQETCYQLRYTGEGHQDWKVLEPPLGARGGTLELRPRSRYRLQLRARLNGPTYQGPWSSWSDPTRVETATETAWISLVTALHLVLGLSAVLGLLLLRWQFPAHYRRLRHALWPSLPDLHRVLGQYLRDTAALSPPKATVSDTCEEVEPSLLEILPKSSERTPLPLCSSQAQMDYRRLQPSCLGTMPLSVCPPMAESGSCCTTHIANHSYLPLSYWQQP
The experiment in a line: in vitro proliferation assay using the murine BaF3 cell line transfected with human Tpo-R. The format is cell-based. Conditions: at a concentration of 2 uM. On the procedure:
Compounds of the present invention were tested for potency as mimetics of TPO in an in vitro proliferation assay using the murine BaF3 cell line transfected with human Tpo-R. Survival and growth is dependent on the presence of TPO.

As for `O=C1NC(=S)SC1=Cc1ccc2[nH]c(-c3cccc(-c4ccc(Cl)c(Cl)c4)n3)nc2c1` [Example 1, 5-{2-[6-(3,4-dichloro-phenyl)-pyridin-2-yl]-1H-benzoimidazol-5-ylmethylene}-2-thioxo-thiozolidin-4-one], the “activation, % of control (control is the maximal response to TPO), proliferation of BaF3 cells” value is “about 20 % of control”.
